The text below walks through data of the OligoGym collection.

HELM strings list units from the 5' end as sugar, base in round brackets, then linkage (d deoxyribose, r ribose, m 2'-O-methyl, p phosphodiester). Strings are as the collection lists them; they lack the last nucleoside at the 3' end of the tested compound. [moe] = 2'-O-(2-methoxyethyl) (MOE); [sp] = phosphorothioate linkage; [m5C] = 5-methylcytosine

The series deals with SMN2. Description: mouse, dose not given. The settings on record: ASO.

With “RNA1{[moe](T)[sp].[moe]([m5C])[sp].[moe](A)[sp].[moe]([m5C])[sp].[moe](T)[sp].[moe](T)[sp].[moe](T)[sp].[moe]([m5C])[sp].[moe](A)[sp].[moe](T)p.[moe](A)[sp].[moe](A)[sp].[moe](T)[sp].[moe](G)[sp].[moe]([m5C])[sp].[moe](T)[sp].[moe](G)}$$$$ (last 3' nucleoside missing)”, the 3 h FOB score came to 3 score 0-7. In the case of “RNA1{[moe](T)[sp].[moe]([m5C])[sp].[moe](A)[sp].[moe]([m5C])[sp].[moe](T)[sp].[moe](T)[sp].[moe](T)[sp].[moe]([m5C])[sp].[moe](A)[sp].[moe](T)p.[moe](A)[sp].[moe](A)[sp].[moe](T)[sp].[moe](G)p.[moe]([m5C])[sp].[moe](T)[sp].[moe](G)}$$$$ (last 3' nucleoside missing)”, the 3 h FOB score amounted to 3.5 score 0-7. In the case of “RNA1{[moe](T)[sp].[moe]([m5C])[sp].[moe](A)[sp].[moe]([m5C])[sp].[moe](T)[sp].[moe](T)[sp].[moe](T)[sp].[moe]([m5C])[sp].[moe](A)p.[moe](T)[sp].[moe](A)[sp].[moe](A)[sp].[moe](T)[sp].[moe](G)[sp].[moe]([m5C])p.[moe](T)[sp].[moe](G)}$$$$ (last 3' nucleoside missing)” it was 3.25 score 0-7; in that of “RNA1{[moe](T)[sp].[moe]([m5C])[sp].[moe](A)[sp].[moe]([m5C])[sp].[moe](T)[sp].[moe](T)[sp].[moe](T)[sp].[moe]([m5C])[sp].[moe](A)p.[moe](T)[sp].[moe](A)[sp].[moe](A)[sp].[moe](T)[sp].[moe](G)p.[moe]([m5C])[sp].[moe](T)[sp].[moe](G)}$$$$ (last 3' nucleoside missing)”, 3.5 score 0-7. The result for “RNA1{[moe](T)[sp].[moe]([m5C])[sp].[moe](A)[sp].[moe]([m5C])[sp].[moe](T)[sp].[moe](T)[sp].[moe](T)[sp].[moe]([m5C])p.[moe](A)[sp].[moe](T)[sp].[moe](A)[sp].[moe](A)[sp].[moe](T)[sp].[moe](G)[sp].[moe]([m5C])[sp].[moe](T)[sp].[moe](G)}$$$$ (last 3' nucleoside missing)” reads 4.25 score 0-7. For “RNA1{[moe](T)[sp].[moe]([m5C])[sp].[moe](A)[sp].[moe]([m5C])[sp].[moe](T)[sp].[moe](T)[sp].[moe](T)[sp].[moe]([m5C])p.[moe](A)p.[moe](T)[sp].[moe](A)[sp].[moe](A)[sp].[moe](T)[sp].[moe](G)[sp].[moe]([m5C])[sp].[moe](T)[sp].[moe](G)}$$$$ (last 3' nucleoside missing)”, the 3 h FOB score is 4 score 0-7. On to “RNA1{[moe](T)[sp].[moe]([m5C])[sp].[moe](A)[sp].[moe]([m5C])[sp].[moe](T)[sp].[moe](T)p.[moe](T)[sp].[moe]([m5C])[sp].[moe](A)[sp].[moe](T)[sp].[moe](A)[sp].[moe](A)[sp].[moe](T)[sp].[moe](G)[sp].[moe]([m5C])[sp].[moe](T)[sp].[moe](G)}$$$$ (last 3' nucleoside missing)”, for which the 3 h FOB score was 4 score 0-7. The result for “RNA1{[moe](T)[sp].[moe]([m5C])[sp].[moe](A)[sp].[moe]([m5C])p.[moe](T)[sp].[moe](T)[sp].[moe](T)[sp].[moe]([m5C])[sp].[moe](A)[sp].[moe](T)[sp].[moe](A)[sp].[moe](A)[sp].[moe](T)[sp].[moe](G)[sp].[moe]([m5C])[sp].[moe](T)[sp].[moe](G)}$$$$ (last 3' nucleoside missing)” reads 3.5 score 0-7; that for “RNA1{[moe](T)[sp].[moe]([m5C])p.[moe](A)[sp].[moe]([m5C])[sp].[moe](T)[sp].[moe](T)[sp].[moe](T)[sp].[moe]([m5C])[sp].[moe](A)[sp].[moe](T)[sp].[moe](A)[sp].[moe](A)[sp].[moe](T)[sp].[moe](G)[sp].[moe]([m5C])[sp].[moe](T)[sp].[moe](G)}$$$$ (last 3' nucleoside missing)”, 3.25 score 0-7.
